Results published in paper PMC8878317, “Chemogenomics identifies acetyl-coenzyme A synthetase as a target for malaria treatment and prevention” (Cell Chemical Biology, 2022).

Legend:
PfAcAS WT = PfAcAS WT (Plasmodium falciparum, UniProt C6KTB4); experiment: EnzChek assay, recombinant PfAcAS WT (steady-state kinetics and IC50); assay type: biochemical, P. falciparum; conditions: substrate varied, other two saturating
Description: (§1) Steady-state kinetic measurements were conducted at room temperature using a PheraStar plate reader (BMG). The first step of the reaction of PfAcAS, which produces inorganic pyrophosphate (PPi) that is converted to two molecules of inorganic phosphate using a pyrophosphatase enzyme, was continuously monitored using the EnzChek Phosphate Assay Kit, which gives an absorbance readout at 360 nm (Figure 4A) ([Webb, 1992]). […] By adding CoA, the reaction rapidly proceeds to the second step resulting in further release of pyrophosphate, making the EnzChek assay a suitable option to continuously monitor the activity of PfAcAS. Typical kinetic assays were carried out in clear, flat-bottom, polystyrene, 384-well plates (Greiner) in an 80 μL reaction volume containing 100 mM HEPES (pH7.4), 100 mM NaCl, 250 mM KCl, 50 mM MgCl2, 1 mM DTT, 0.004% Tween 20, 0.5 U/mL pyrophosphatase, 0.1 mM MESG, 0.5 U/mL PNP, 2 mM ATP, 2 mM acetate, 0.5 mM CoA and 5 nM recombinant PfAcAS WT or 10 nM recombinant PfAcAS A597V or T648M. Assays were performed by adding 40 μL of a 2-times concentrated substrate mixture including MESG to all wells, and the reactions started by adding 40 μL of a 2-times concentrated reaction mixture containing all other components. The reactions were carried out for 2 to 4 hr with absorbance readings at 360 nm every two to four minutes. Reaction rates were extracted from the linear phase of activity, usually using 10 to 20 points between times of 30 and 100 min of the reactions. Using a phosphate standard curve obtained under the same buffer conditions used for the PfAcAS reactions (Figure S5A), the rates were then converted to velocity per second, conversion of one nanomolar of phosphate, per nanomolar of enzyme, per second. The substrates Km values were determined by varying the concentration of one of the substrates at saturating concentration of the other two substrates. Steady-state data were fitted using the nonlinear, least-squares, curve-fitting programs of Sigma-Plot for Windows, version 14.0. Individual saturation curves were fit to Equation 1(Equation 1) v=VS/K+S where V is the maximal velocity, S is the substrate concentration and K is the Michaelis constant for the substrate (Km). Individual saturation curves displaying substrate inhibition were fit to Equation 2(Equation 2) v=VS/K+S×(1+S/Ks) where Ks is the substrate inhibition constant.
(§2) To determine the steady-state inhibition parameters and patterns associated with both inhibitors, PfAcAS activity was studied in the presence of variable concentrations of one substrate, ATP, acetate or CoA, fixed saturating concentration of the other two substrates (acetate and CoA, ATP and CoA, or ATP and acetate) and several fixed concentrations of inhibitor. Assay ready plates containing different concentrations of inhibitor were prepared using an Echo 550 acoustic dispenser (Labcyte Inc.). The assays were carried out as described in the previous section. […] For better comparison between both inhibitors and proteins, the ymin was fixed to zero and the ymax to 100. Inhibition data showing linear, competitive patterns in double-reciprocal plots were fit to Equation 4(Equation 4) v=VS/K(1+I/Ki)+S where Ki is the dissociation constant for the enzyme-inhibitor complex. Inhibition data showing linear, mixed inhibition patterns in double-reciprocal plots were fit to Equation 5(Equation 5) v=VS/K(1+I/Kis)+S(1+I/Kii) where Kis is the dissociation constant for the free enzyme-inhibitor complex and Kii is the dissociation constant for the enzyme-substrate-inhibitor complex. Inhibition data showing linear, uncompetitive patterns in double-reciprocal plots were fit to Equation 6(Equation 6) v=VS/K+S(1+I/Ki)

PfAcAS A597V = biological target: T1, PfAcAS A597V (Plasmodium falciparum, UniProt C6KTB4, A597V); experiment: EnzChek assay, recombinant PfAcAS A597V; assay type: biochemical, P. falciparum; conditions: substrate varied, other two saturating
T1 sequence (C6KTB4 1-997 A597V): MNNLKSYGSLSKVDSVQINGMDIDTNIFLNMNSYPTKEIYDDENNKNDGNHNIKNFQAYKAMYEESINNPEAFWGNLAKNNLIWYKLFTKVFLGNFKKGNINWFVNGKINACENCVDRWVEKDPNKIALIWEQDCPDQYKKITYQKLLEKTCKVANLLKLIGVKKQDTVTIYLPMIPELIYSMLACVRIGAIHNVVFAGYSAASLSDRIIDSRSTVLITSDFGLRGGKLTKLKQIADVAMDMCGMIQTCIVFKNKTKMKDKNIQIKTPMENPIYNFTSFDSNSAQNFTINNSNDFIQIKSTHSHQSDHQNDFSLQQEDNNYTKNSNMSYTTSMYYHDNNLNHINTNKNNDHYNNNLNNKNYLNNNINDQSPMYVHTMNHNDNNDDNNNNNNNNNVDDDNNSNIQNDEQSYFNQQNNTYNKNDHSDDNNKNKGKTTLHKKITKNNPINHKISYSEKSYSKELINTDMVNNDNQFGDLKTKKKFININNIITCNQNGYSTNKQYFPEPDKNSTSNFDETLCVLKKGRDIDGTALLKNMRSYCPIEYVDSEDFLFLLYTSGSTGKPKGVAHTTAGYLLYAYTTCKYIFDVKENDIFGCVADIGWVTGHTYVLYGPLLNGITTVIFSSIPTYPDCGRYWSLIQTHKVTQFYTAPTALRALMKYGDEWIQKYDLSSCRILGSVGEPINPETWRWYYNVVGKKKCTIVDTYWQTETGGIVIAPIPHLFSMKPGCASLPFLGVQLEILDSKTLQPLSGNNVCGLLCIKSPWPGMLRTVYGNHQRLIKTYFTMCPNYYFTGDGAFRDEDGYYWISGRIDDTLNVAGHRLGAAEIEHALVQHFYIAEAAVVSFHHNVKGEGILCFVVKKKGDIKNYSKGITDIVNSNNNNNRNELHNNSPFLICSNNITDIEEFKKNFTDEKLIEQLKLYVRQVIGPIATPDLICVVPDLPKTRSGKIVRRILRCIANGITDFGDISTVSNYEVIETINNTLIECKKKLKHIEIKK
Description: as §1, §2

PfAcAS T648M = biological target: T2, PfAcAS T648M (Plasmodium falciparum, UniProt C6KTB4, T648M); experiment: EnzChek assay, recombinant PfAcAS T648M; assay type: biochemical, P. falciparum; conditions: substrate varied, other two saturating
T2 sequence (C6KTB4 1-997 T648M): T1 sequence (C6KTB4 1-997 A597V)
Description: as §1, §2

[1] = tested on: P. falciparum 3D7 parasites; experiment: Metabolomic profiling of compound-treated parasites (LC/MS); assay type: cell-based; design: Metabolite data: dTMP / Metabolite data: GMP / Metabolite data: S-Adenosyl-L-Homocysteine / Metabolite data: 1_3-Bisphosphoglyceric acid: scale not given here;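 for Metabolite data: 3-Phosphoglycerate: Log2 fold change in abundance versus untreated parasite controls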;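 for Metabolite data: Myo-Inositol: Log2 fold change in abundance versus untreated parasite controls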;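 for Metabolite data: N-Carbamoyl-L-Aspartate: Log2 fold change in abundance versus untreated parasite controls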;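 for Metabolite data: Nicotinate: Log2 fold change in abundance versus untreated parasite controls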
Procedure, shortened: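 Magnetically purified trophozoites (1×10^8 parasites/mL) recovered 1 h in RPMI 1640, incubated a further 2.5 h, quenched in 90% methanol with labeled aspartate. Extracts analysed by reverse-phase C18 LC with negative-mode Orbitrap MS; peak areas normalized to internal standards, blank-subtracted and averaged by condition.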

Compound: Nc1ncnc2c1ncn2[C@@H]1O[C@H](COP(=O)(O)OP(=O)(O)OP(=O)(O)O)[C@@H](O)[C@H]1O [ATP]
- Km (PfAcAS WT): 93 µM
- Vmax (s-1), PfAcAS WT (PfAcAS WT): 2.4 ± 0.03 s⁻¹
- Km (PfAcAS A597V): 140 ± 5 µM
- Vmax (s-1), PfAcAS A597V (PfAcAS A597V): 0.54 ± 0.01 s⁻¹
- Km (PfAcAS T648M): 400 ± 17 µM
- Vmax (s-1), PfAcAS T648M (PfAcAS T648M): 1.9 ± 0.03 s⁻¹

Compound: CCc1nc(N)nc(N)c1-c1ccc(Cl)cc1 [Pyrimethamine]
- Metabolite data: 1_3-Bisphosphoglyceric acid [1]: 0
- Metabolite data: 2_3-Diphosphoglyceric acid [1]: 0.1448
- Metabolite data: 3-Phosphoglycerate [1]: 0.06527
- Metabolite data: 4-Aminobutyrate [1]: 0.06366
- Metabolite data: 4-Phosphopantothenate [1]: 0.159
- Metabolite data: 4-phosphopantetheine [1]: 0
- Metabolite data: 5-aminopentanoic acid [1]: 0
- Metabolite data: 5-phosphoribosyl-1-pyrophosphate [1]: 0
- Metabolite data: 6-Phospho-D-Gluconate [1]: 0.08879
- Metabolite data: ADP-D-Glucose [1]: 0.2656
- Metabolite data: Acetyl-CoA [1]: 0.1996
- Metabolite data: Acetyllysine [1]: 0.2921
- Metabolite data: Aconitate [1]: 0.4355
- Metabolite data: CDP [1]: 0.1713
- Metabolite data: CDP-Ethanolamine [1]: 1.312
- Metabolite data: CDP-choline [1]: 0
- Metabolite data: CMP [1]: 0.005842
- Metabolite data: CTP [1]: -0.1699
- Metabolite data: Citrate/Isocitrate [1]: -0.2585
- Metabolite data: Cyclic-AMP [1]: 0.06421
- Metabolite data: Dihydroorotate [1]: 1.359
- Metabolite data: FAD [1]: 0.05439
- Metabolite data: FMN [1]: -0.4759
- Metabolite data: Fructose-1,6-Bisphosphate [1]: 0.2831
- Metabolite data: Fumarate [1]: 0.3378
- Metabolite data: GDP [1]: 0.005686
- Metabolite data: GMP [1]: 0.1718
- Metabolite data: GTP [1]: -0.6779
- Metabolite data: Glucose-1/6-Phosphate [1]: 0.1953
- Metabolite data: Glutathione Disulfide [1]: 0.3348
- Metabolite data: Hexose [1]: 0
- Metabolite data: Hydroxyisocaproic acid [1]: 0
- Metabolite data: Indole [1]: -0.02333
- Metabolite data: Ketoleucine [1]: 0
- Metabolite data: L-arginino-succinate [1]: 0
- Metabolite data: Lactate [1]: 0.8185
- Metabolite data: Malate [1]: 0.5597
- Metabolite data: Myo-Inositol [1]: 2.112
- Metabolite data: N-Acetyl-Glutamate [1]: 0.1671
- Metabolite data: N-Acetyl-L-Alanine [1]: 0.1511
- Metabolite data: N-Acetyl-L-Ornithine [1]: 0.1555
- Metabolite data: N-Carbamoyl-L-Aspartate [1]: 0.3085
- Metabolite data: NAD+ [1]: 0.008224
- Metabolite data: NADH [1]: 4.9
- Metabolite data: NADP+ [1]: 0.03009
- Metabolite data: NADPH [1]: 1.808
- Metabolite data: Nicotinate [1]: 0.1972
- Metabolite data: Octulose 8/1-Phosphate [1]: -0.1128
- Metabolite data: Orotate [1]: 0.09092
- Metabolite data: PD [1]: 0.177
- Metabolite data: PE [1]: -0.01685
- Metabolite data: PEEK [1]: 0
- Metabolite data: Phenol Red [1]: 0
- Metabolite data: Pyroglutamic acid [1]: 0.09576
- Metabolite data: S-Adenosyl-L-Homocysteine [1]: 0.08183
- Metabolite data: S-methyl-5'-thioadenosine [1]: 0.0579
- Metabolite data: SD [1]: 0.04153
- Metabolite data: Sedoheptulose Bisphosphate [1]: 0.1986
- Metabolite data: UDP [1]: 0.2702
- Metabolite data: UDP-D-Glucose [1]: 0.138
- Metabolite data: UDP-D-Glucuronate [1]: 0.02668
- Metabolite data: UDP-N-Acetyl-Glucosamine [1]: 0.1474
- Metabolite data: UMP [1]: 0.1095
- Metabolite data: UTP [1]: -0.3099
- Metabolite data: a-ketoglutarate [1]: 0.2017
- Metabolite data: acetyl-aspartate [1]: 0
- Metabolite data: arginine [1]: 0
- Metabolite data: asparagine [1]: 0
- Metabolite data: aspartate [1]: 0
- Metabolite data: biotin [1]: 0
- Metabolite data: chlorpropamide [1]: 0
- Metabolite data: coenzyme A [1]: 0
- Metabolite data: dAMP [1]: -0.3497
- Metabolite data: dATP [1]: 0.1703
- Metabolite data: dCDP [1]: 0.2805
- Metabolite data: dCMP [1]: 0.1423
- Metabolite data: dCTP [1]: -0.258
- Metabolite data: dGDP/ADP [1]: 0.2431
- Metabolite data: dGMP/AMP [1]: -0.07108
- Metabolite data: dGTP/ATP [1]: 0
- Metabolite data: dTDP [1]: 0.3943
- Metabolite data: dTMP [1]: 0.05289
- Metabolite data: dTTP [1]: -0.1782
- Metabolite data: folate [1]: 0
- Metabolite data: glucono-lactone [1]: 0
- Metabolite data: glutamate [1]: 0
- Metabolite data: glutamine [1]: 0
- Metabolite data: glutathione [1]: 0
- Metabolite data: histidine [1]: 0
- Metabolite data: hydroxyproline/Aminolevulinate [1]: 0
- Metabolite data: isoleucine [1]: 0
- Metabolite data: leucine [1]: 0
- Metabolite data: maleic acid [1]: 0
- Metabolite data: methionine [1]: 0
- Metabolite data: nicotinamide mononucleotide [1]: 0
- Metabolite data: orotidine-5'-phosphate [1]: 0
